# Laboratory results taken from patent publication US7741283B2, “Compositions and methods for inhibiting cell proliferation” (St. Louis University, priority 2003, dated 2010).
# How the values were obtained:
# Mv1Lu cells = experiment: Cell growth (cell number), Mv1Lu cells; assay type: cell-based, mink; details: IGFBP-3 0.5 μg/ml, 4-day
# Procedure: FIG. 6 depicts the effects of IGFBP-3 and TGF-β1 on DNA synthesis (A), cell growth (B) and PAI-1 expression (C) in Mv1Lu and PEA-C11 cells. (A,B) Cells were incubated with various concentrations of IGFBP-3 (a) or TGF-β1 (b) as indicated. DNA synthesis and cell growth were determined by measuring the [methyl-^3H] thymidine incorporation into cellular DNA after 18 hr incubation (A) and by counting cell number after a 4-day incubation (B), respectively. The [methyl-^3H] thymidine incorporation in cells treated without IGFBP-3 and TGF-β1 (29,170±1,657 and 59,947±7,692 cpm/well for Mv1Lu and PEA-C11 cells, respectively) were taken as 0% inhibition. […] Each data point is the mean±S.D. of quadruplicate determinations. […] Data are representative of eight similar experiments. (C) Cells were incubated with various concentrations of TGF-β1 as indicated. After 2 hr at 37° C., the PAI-1 expression was determined by Northern blot analysis. The expression of glyceraldehyde-3-phosphate dehydrogenase (G3PDH) was used as control. The relative levels of the transcripts were quantified by a Phospholmager. Data are representative of four similar experiments.
# Cells were plated at a density of 1-2×10^4 cells/dish in DMEM containing 1% fetal calf serum. The cell number was counted every day or after a 3-day incubation using a hematocytometer. The assays were performed in quadruplicate.
# [1] = tested on: 32D cells expressing vector only; experiment: [methyl-3H] thymidine incorporation, 32D cells transfected with vector only; assay type: cell-based, murine
substance,measurement,setting,value
IGFBP-3: human insulin-like growth factor binding protein-3 expressed in E. Coli,Inhibition of cell growth,Mv1Lu cells,~70%
same,Inhibition of DNA synthesis,[1],minimally or not at all
